From US10494610B2, “Three dimensional matrix for cancer stem cells” (UNIVERSITY OF SOUTH CAROLINA, priority 2013, dated 2019) come the findings set out here.

Assay [1] has as its system 4T1 mouse breast carcinoma cells. The assay can be described thus: Tumorsphere formation, size and cell number of cells encapsulated in the gel. The assay is classed as cell-based. To be noted: 9 days; for tumorsphere formation: 4T1 in 5 kPa PEGDA gel with peptide conjugated (conj) or dissolved (dis); for cell number density compared with the gel without peptide: 4T1 in PEGDA gel with peptide conjugated (conj) or dissolved (dis). The procedure:
4T1 and MCF7 tumor cells were cultured in RMPI-1640 medium with 10% FBS under 5% CO2 at 37° C. Cells were trypsinized after reaching 70% confluency. PEGDA macromer was dissolved in PBS and sterilized by filtration with a 0.2 μm filter. Next, 1.4×10^5/mL 4T1 or MCF7 cells suspended in PBS were added to the macromer solution with final PEGDA concentrations ranging 5-25 wt % and mixed gently with a pre-sterilized glass rod. The cell-suspended hydrogel precursor solution was crosslinked with UV for 10 min. After crosslinking, the gel was cut into disks and incubated in stem cell culture medium in ultra-low attachment tissue culture plates under 5% CO2. The stem cell medium consisted of DMEM-F12 supplemented with 0.4% bovine serum albumin (BSA), 5 μg/mL insulin, 40 ng/mL basic fibroblast growth factor (bFGF), 20 ng/mL EGF, 5% horse serum, 100 U/mL penicillin, and 100 μg/mL streptomycin.
To determine cell viability, gels were stained with cAM/EthD live/dead dyes 2 days after encapsulation to image live and dead cells, respectively. Stained samples were imaged with an inverted fluorescent microscope (Nikon Eclipse Ti-ε, Nikon, Melville, N.Y.). Cell viability was quantified by dividing the image into smaller squares and counting the number of live and dead cells. At each time point, the gel samples were removed from the culture media and stained for imaging. Samples were rinsed twice with PBS and fixed with 4% paraformaldehyde for 3 h. After fixation, cells were permeabilized using PBS containing 0.1% Triton X-100 for 5 min. After rinsing, cells were incubated with Alexa 488 phalloidin (1:200 dilution) and DAPI (1:5000 dilution) to stain actin filaments of the cell cytoskeleton and cell nuclei, respectively. Stained samples were imaged with a Nikon Eclipse Ti-ε inverted fluorescent microscope. For visualization of cell uniformity, a confocal fluorescent microscope (Zeiss LSM-510 META Axiovert, Carl Zeiss, Germany) was used to obtain 2D images (90 μm thick layers) of the stained gels in the direction of thickness. For determination of cell number, the gel samples were homogenized, cells were lysed, and aliquots were used to measure the double stranded DNA (dsDNA) content using a Quant-it PicoGreen assay. Briefly, an aliquot (100 μL) of the working solution was added to 100 μL of the cell lysate and incubated for 4 min at ambient conditions. The fluorescence of the solution was measured with a plate reader (Synergy HT, Bio-Tek, Winooski, Vt.) at emission and excitation wavelength of […], respectively. Measured fluorescent intensities were correlated to cell numbers using a calibration curve constructed with 4T1 or MCF7 cells of known concentration ranging from zero to […].
The tumor cells were cultured in RMPI-1640 medium with 10% FBS under 5% CO2 at 37° C. Cells were trypsinized after reaching 70% confluency. The synthesized acrylamide-terminated peptides were added to the PEGDA macromer solution and the mixture was sterilized by filtration (220 nm filter). Next, 1.4×10^5/ml cells (4T1, MCF7, or MCF10a) were added to the macromer solution and mixed gently with a pre-sterilized glass rod. The cell-suspended hydrogel precursor solution was crosslinked with UV for 10 min as described above. After cross-linking, the gel was cut into disks and incubated in stem cell culture medium on ultra-low attachment tissue culture plates under 5% CO2. The stem cell medium consisted of DMEM-F12 supplemented with 0.4% BSA, 5 μg/ml insulin, 40 ng/ml bFGF, 20 ng/ml EGF, 5% horse serum, 100 U/ml penicillin, and 100 μg/ml streptomycin. For growing tumorspheres in suspension, trypsinized cells (4T1 or MCF7) were cultured on ultra-low attachment tissue culture plates with stem cell culture medium under 5% CO2 at 37° C.
To determine cell viability, gels were stained with cAM and EthD dyes after cell encapsulation to image live and dead cells, respectively. […]

The subject of another assay is 4T1 cells. Description: RT-qPCR mRNA expression of CSC related markers in encapsulated cells. The assay is classed as cell-based, mouse. The following applies: 4T1 in PEGDA gel with peptide, 9 days. The procedure: Total cellular RNA of the gel samples was isolated using TRIzol (Invitrogen). 250 ng of the extracted purified RNA was reverse transcribed to cDNA by SuperScript II Reverse Transcriptase (Invitrogen) with the random primers. The obtained cDNA was subjected to real time quantitative polymerase chain reaction (RT-qPCR) amplification with appropriate gene specific primers. RT-qPCR was performed to analyze the differential expression of CSC markers CD44 (4T1 and MCF7), CD24 (4T1), ABCG2 (4T1 and MCF7), and SCA1 (4T1) genes with SYBR green RealMasterMix (Eppendorf, Hamburg, Germany) using Bio-Rad iCycler PCR system (Bio-Rad, Hercules, Calif.). The expression level of GAPDH gene was used as an internal control. The primers for real time PCR were designed by Primer 3 software. The following forward and reverse primers synthesized by Integrated DNA technologies (Coralville, Iowa) were used: mouse GAPDH: forward 5′-CATGGCCTTCCGTGTTCCTA-3′ (SEQ ID NO: 1) and reverse 5′-CCTGCTTCACCACCTTCTTGA-3′ (SEQ ID NO: 2); mouse CD44: forward 5′-GAATGTAACCTGCCGCTACG-3′ (SEQ ID NO: 3) and reverse 5′-GGA GGT GTT GGA CGT GAC-3′ (SEQ ID NO: 4); mouse CD24: forward 5′-CTTCTGGCACTGCTCCTACC-3′ (SEQ ID NO: 5) and reverse 5′-GAGAGAGAGCCAGGAGACCA-3′ (SEQ ID NO: 6); mouse ABCG2: forward 5′-AGCAGCAAGGAAAGATCCAA-3′ (SEQ ID NO: 7) and reverse 5′-GGAATACCGAGGCTGATGAA-3′ (SEQ ID NO: 8); mouse SCA1: forward 5′-TGG ACA CTT CTC ACA CTA-3′ (SEQ ID NO: 9) and reverse 5′-CAGAGCAAGAGGGTCTGCAGGAG-3′ (SEQ ID NO: 10); human GAPDH forward 5′-GAGTCAACGGATTTGGTCGT-3′ (SEQ ID NO: 11) and reverse 5′-TTGATTTTGGAGGGATCTCG-3′ (SEQ ID NO: 12); human CD44 forward 5′-GGCTTTCAATAGCACCTTGC-3′ (SEQ ID NO: 13) and reverse 5′-ACACCCCTGTGTTGTTTGCT-3′ (SEQ ID NO: 14); human ABCG2 forward 5′-CACCTTATTGGCCTCAGGAA-3′ (SEQ ID NO: 15) and reverse 5′-CCTGCTTGGAAGGCTCTATG-3′ (SEQ ID NO: 16). The relative gene expression levels were quantified by the 2^-ddCT method as described. The relative gene expressions were expressed as fold difference compared with that at time zero.
Total cellular RNA of the gel samples was isolated using TRIzol (Invitrogen). 250 ng of the extracted purified RNA was reverse transcribed to cDNA by SuperScript II Reverse Transcriptase (Invitrogen) with the random primers. The obtained cDNA was subjected to real time quantitative polymerase chain reaction (RT-qPCR) amplification with the appropriate gene specific primers. RT-qPCR was performed to analyze the differential expression of CSC markers CD44, CD24, ABCG2, and SCA1 genes with SYBR green RealMasterMix (Eppendorf, Hamburg, Germany) using Bio-Rad iCycler PCR system (Bio-Rad, Hercules, Calif.). The expression level of GAPDH gene was used as an internal control. The primers for real time PCR were designed by Primer 3 software. The forward and reverse primer sequences, listed in the table below, were synthesized by Integrated DNA technologies (Coralville, Iowa). The relative gene expression levels were quantified by the 2^(−ΔΔCT) method. Briefly, ΔCT was calculated as ΔCT=CT^target gene−CT^GAPDH. ΔΔCT of the target gene was calculated as ΔΔCT=ΔCT^experimental group−ΔCT^reference group. The reference was the first time point (right after cells were encapsulated in the gel). The relative gene expression (fold-change compared to the reference time point) was calculated as 2^(−ΔΔCT).
In general terms: Real-time PCR tracks product formation cycle by cycle.

“RLVSYNGIIFFLK [dis CD44BP, CD44BP dissolved in the gel and in the culture medium]”: in assay [1], the tumorsphere formation result is recorded as “did not inhibit sphere formation” and the “cell number density compared with the gel without peptide” value was “lower”. Besides, in the assay on 4T1 cells, the “ABCG2 mRNA marker expression” value is reported as “high expressions”, the “CD24 mRNA marker expression” value is on record as “low expression”, the “CD44 mRNA marker expression” value was “high expressions” and the “SCA1 mRNA marker expression” value was “high expressions”.

For “VLFGFLKIYSRIN [conj s-CD44BP, reference compound]”, in assay [1], the tumorsphere formation entry is reported as “no significant effect” and the “cell number density compared with the gel without peptide” value is “lower”. In addition, in the assay with 4T1 cells, the “ABCG2 mRNA marker expression” value was “high expressions”, the “CD24 mRNA marker expression” value is given as “low expression”, the “CD44 mRNA marker expression” value is recorded as “high expressions” and the “SCA1 mRNA marker expression” value is “high expressions”.
